Target: T1, TMEM94 (Homo sapiens, UniProt Q12767)
T1 construct: full-length, purified in detergent micelles; TMD extends to residue 1356; N-glycosylated
T1 sequence (Q12767 1-1356): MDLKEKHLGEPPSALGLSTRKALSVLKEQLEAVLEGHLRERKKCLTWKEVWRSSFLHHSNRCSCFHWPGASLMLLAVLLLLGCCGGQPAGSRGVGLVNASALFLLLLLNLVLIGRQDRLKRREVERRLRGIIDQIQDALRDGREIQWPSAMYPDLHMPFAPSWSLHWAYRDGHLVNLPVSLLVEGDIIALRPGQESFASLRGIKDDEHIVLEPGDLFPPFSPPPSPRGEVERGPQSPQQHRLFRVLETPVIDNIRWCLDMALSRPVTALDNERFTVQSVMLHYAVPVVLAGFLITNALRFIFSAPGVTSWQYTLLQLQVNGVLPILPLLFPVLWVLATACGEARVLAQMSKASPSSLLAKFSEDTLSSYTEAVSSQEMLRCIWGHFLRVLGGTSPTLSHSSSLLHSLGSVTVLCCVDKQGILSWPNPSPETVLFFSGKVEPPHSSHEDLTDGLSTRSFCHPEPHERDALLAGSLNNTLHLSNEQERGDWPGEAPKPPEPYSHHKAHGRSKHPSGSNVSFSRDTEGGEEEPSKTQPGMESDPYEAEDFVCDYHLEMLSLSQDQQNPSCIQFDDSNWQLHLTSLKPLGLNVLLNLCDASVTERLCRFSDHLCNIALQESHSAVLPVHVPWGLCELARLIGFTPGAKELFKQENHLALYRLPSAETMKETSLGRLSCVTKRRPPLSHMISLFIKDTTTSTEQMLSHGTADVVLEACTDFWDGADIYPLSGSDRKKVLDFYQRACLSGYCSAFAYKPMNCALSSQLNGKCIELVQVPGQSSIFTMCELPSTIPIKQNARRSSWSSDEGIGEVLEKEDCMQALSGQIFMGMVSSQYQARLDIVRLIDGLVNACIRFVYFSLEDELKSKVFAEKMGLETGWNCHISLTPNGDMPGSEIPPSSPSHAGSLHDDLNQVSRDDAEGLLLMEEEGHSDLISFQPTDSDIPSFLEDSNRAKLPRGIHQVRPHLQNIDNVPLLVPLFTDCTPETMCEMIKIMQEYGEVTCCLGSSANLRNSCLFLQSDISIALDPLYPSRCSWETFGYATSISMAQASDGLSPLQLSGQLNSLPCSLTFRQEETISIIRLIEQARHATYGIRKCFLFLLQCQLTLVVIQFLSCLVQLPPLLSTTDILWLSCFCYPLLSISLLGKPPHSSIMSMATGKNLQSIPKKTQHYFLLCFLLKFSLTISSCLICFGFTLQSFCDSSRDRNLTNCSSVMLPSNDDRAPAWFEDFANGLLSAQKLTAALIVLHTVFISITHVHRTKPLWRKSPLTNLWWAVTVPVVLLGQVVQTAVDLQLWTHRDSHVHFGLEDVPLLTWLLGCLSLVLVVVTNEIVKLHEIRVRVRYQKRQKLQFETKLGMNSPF
Assay: microscale thermophoresis (MST)
Assay type: binding

Nc1ncnc2c1ncn2[C@@H]1O[C@H](COP(=O)(O)OP(=O)(O)CP(=O)(O)O)[C@@H](O)[C@H]1O [AMPPCP]
Kd: 5.48 ± 1.41 µM

— article PMC12134183, “Structural analysis of full-length human transmembrane protein 94 argues against its classification as a P-type Mg^2+ ATPase” (Cell Discovery, 2025)
